In article PMC9738727, “Purification and Characterization of Novel Anti-MRSA Peptides Produced by Brevibacillus sp. SPR-20” (Molecules, 2022):
Ends that are not written are not given here.

How the values were obtained:
MRSA isolate 2468 [1] = assay: Agar well diffusion, arbitrary activity of purification fractions; assay type: cell-based, Staphylococcus aureus; conditions: 2-fold dilutions, AU per mg total protein
Protocol: Eight milliliters of the SPR-20 starter culture was added to 392 mL of Luria–Bertani (LB) broth (Titan Biotech Ltd., Rajasthan, India) in a 2 L flask. The culture was incubated at 30 °C and 150 rpm for 24 h before the crude supernatant was collected by centrifugation at 10,000× g and 4 °C for 15 min. Ammonium sulfate at 75% of saturation was added to the supernatant, and the precipitate was desalted by dialysis using a 3.5 kDa molecular weight cut-off (MWCO) SnakeSkin membrane (Pierce, Rockford, IL, USA) in the dialysis buffer (50 mM ammonium acetate pH 5.0 and 50 mM NaCl) at 4 °C for 16 h. The sample solution was purified by a HiTrap SP column under the elution gradient of buffer A (50 mM ammonium acetate pH 5.0 and 50 mM NaCl) and buffer B (50 mM ammonium acetate pH 5.0 and 1 M NaCl). The flow rate was set at 3 mL/min, and the wavelength was monitored at 214 nm. […] The peak was detected at 214 nm. […] The active fractions obtained from each purification step were prepared at different concentrations using 2-fold dilution, and the antimicrobial activity against MRSA isolate 2468 was determined by agar well diffusion assay.
The antimicrobial activity was measured by an agar well diffusion test with some modified methods. […] Each experiment was performed in three independent replicates, and the inhibition zone was measured and expressed as mean ± SD.

[2] = Circular dichroism secondary structure content (CONTINLL); assay type: physicochemical; conditions: CD, 25 °C
Protocol: The purified peptides (0.6 mg/mL) were dissolved in deionized water or 50 mM SDS and introduced into the circular dichroism (CD) spectrophotometer (JASCO Corporation, Tokyo, Japan). A 1 mm quartz cell was used for the measurement. The CD spectra were collected at 25 °C in the wavelength between 190 and 260 nm with a scanning speed of 100 nm/min, a bandwidth of 1.0 nm, and a data resolution of 0.1 nm. Each experiment was performed in three replications, and the background spectrum of the corresponding solvent was subtracted from the peptide spectrum. The content of the secondary structure of the peptides was calculated using the CONTINLL program.

human erythrocytes = assay: Hemolysis; assay type: cell-based; conditions: highest concentration with hemolysis below 10% divided by MIC
Protocol: Human blood (5 mL) from a healthy volunteer was collected in an EDTA tube. The erythrocytes were centrifuged at 700× g for 8 min and washed with PBS pH 7.4 three times. The erythrocytes were diluted with PBS pH 7.4 to reach a 0.5% v/v concentration. The suspension of erythrocytes (50 μL) was transferred to each well in a 96-well plate. The anti-MRSA peptide was dissolved and prepared by performing a 2-fold serial dilution with PBS pH 7.4 before the samples (50 μL) were added to the wells to achieve the final concentrations of 0.25–64 μg/mL. The reactions were incubated at 37 °C for 1 h, and the supernatant was collected by centrifugation at 1000× g for 10 min. The release of hemoglobin was monitored by measuring the absorbance at 540 nm. PBS pH 7.4 and 1% Triton X-100 were used as the negative and positive controls, respectively. The relative hemolysis was determined by normalizing the absorbance of the sample by that of the positive control. Each experiment was performed in three replications.

S. aureus TISTR 517 [3] = assay: Proteolytic enzyme stability, remaining activity by agar well diffusion; assay type: in vitro ADME, Staphylococcus aureus; conditions: proteinase K, trypsin, α-chymotrypsin, both test strains
Protocol: The antimicrobial activity was measured by an agar well diffusion test with some modified methods. In brief, single colonies of the tested strains were suspended in 0.85% NaCl, and then the OD at 625 nm was adjusted to 0.1. The cell suspensions were spread on MH agar, and the tested samples (100 μL) were introduced into each well before incubation at 37 °C for 24 h. Each experiment was performed in three independent replicates, and the inhibition zone was measured and expressed as mean ± SD.
The stability of the anti-MRSA peptide against several conditions was studied. […] The sensitivity of the peptide sample to proteolytic enzymes was investigated by incubating the sample with proteinase K, trypsin, and α-chymotrypsin (1 mg/mL) for 1 h. Surfactant compatibility of the substance was examined by incubating the sample with 1% SDS and 1% Triton X-100 for 1 h (AppliChem GmbH, Darmstadt, Germany). The acid and base hydrolysis property of the substance was assessed by pH adjustment to 2–14 for 1 h before the samples were neutralized to pH 7. […] The stability profiles were presented as the percentage of activity relative to the untreated condition (mean ± SD), and significant difference was determined by the Student’s t-test at a p-value < 0.05.

MRSA isolate 142 = assay: microbe, parasite or virus in culture; assay type: cell-based, Staphylococcus aureus; conditions: isolate 142, 24 h
Protocol: (§1) The MIC and MBC of the purified peptides from SPR-20 were determined by broth microdilution assay following a standard guideline. S. aureus TISTR 517 and MRSA isolate 142, 1096, and 2468 as bacterial strains were cultured in MH agar at 37 °C for 18 h. […] The cells were then diluted to 5 × 10^6 CFU/mL using cation-adjusted Mueller Hinton broth (CAMHB). The diluted cell suspension (10 μL) was transferred to each well of a 96-well plate. The purified peptide in the total volume of 100 µL was added to each well to obtain the final concentrations between 0.5 and 64 µg/mL. The standard antibiotics (vancomycin and cefoxitin) (Sigma-Aldrich Co., St. Louis, MO, USA) and antibiotic-free samples were the positive and negative controls, respectively. CAMHB without tested bacteria was used as a blank. The 96-well plates were incubated at 37 °C for 24 h, and the experiment was performed in triplicate for each strain. […] Subsequently, 100 µL of each dilution was spread on MH agar and then incubated at 37 °C for 24 h.

[4] = tested on: S. aureus TISTR 517 and MRSA strains; assay: microbe, parasite or virus in culture; assay type: cell-based, Staphylococcus aureus; conditions: TISTR 517 and strains, 18 h
Protocol: as §1

MRSA isolate 2468 [5] = assay: microbe, parasite or virus in culture; assay type: cell-based, Staphylococcus aureus; conditions: isolate 2468, 24 h
Protocol: as §1

MRSA isolate 1096 = assay: microbe, parasite or virus in culture; assay type: cell-based, Staphylococcus aureus; conditions: isolate 1096, 24 h
Protocol: as §1

S. aureus TISTR 517 [6] = assay: microbe, parasite or virus in culture; assay type: cell-based, Staphylococcus aureus; conditions: TISTR 517, 24 h
Protocol: as §1

In the case of VVVNVLVKVLPPPVV [Peptide P1], the “Specific Activity” value (MRSA isolate 2468 [1]) is reported as 1694 AU/mg, the Random ([2]; 0.6 mg/mL in 50 mM SDS) is reported as 34.6% and the Turn ([2]; 0.6 mg/mL in 50 mM SDS) is reported as 10.6%. It also gave a α-Helix ([2]; 0.6 mg/mL in 50 mM SDS) of 25.5%, a β-Strand ([2]; 0.6 mg/mL in 50 mM SDS) of 29.3% and a Random ([2]; 0.6 mg/mL in H2O) of 32.4%. The Turn ([2]; 0.6 mg/mL in H2O) was 19.5%, the α-Helix ([2]; 0.6 mg/mL in H2O) was 4.1% and the β-Strand ([2]; 0.6 mg/mL in H2O) was 44.0%. For the same sequence, the “therapeutic index of hemolysis (TIhemolysis)” value (human erythrocytes) was 16, the “activity when incubated with proteolytic enzymes” value (S. aureus TISTR 517 [3]) was “more than 90%” and the MBC (MRSA isolate 142) was 4 µg/mL. The MIC (MRSA isolate 142) was 2 µg/mL, the MIC [4] was 1.27 µM and the MBC (MRSA isolate 2468 [5]) was 4 µg/mL. For the same sequence, the MIC (MRSA isolate 2468 [5]) was 2 µg/mL, the MBC (MRSA isolate 1096) was 4 µg/mL and the MIC (MRSA isolate 1096) was 2 µg/mL. For the same sequence, the MBC (S. aureus TISTR 517 [6]) was 4 µg/mL and the MIC (S. aureus TISTR 517 [6]) was 2 µg/mL.
